Experimental data published in ChEMBL document CHEMBL3822420, “New peptide deformylase inhibitors design, synthesis and pharmacokinetic assessment” (Bioorg Med Chem Lett, 2016).
In brackets after ≈: the same amount, converted by molar mass.

Experiments:
Assay type in all cases: functional
Staphylococcus aureus [1] = assay: Antibacterial activity against methicillin-sensitive Staphylococcus aureus 14-2
Staphylococcus aureus [2] = assay: Antibacterial activity against methicillin-resistant Staphylococcus aureus 14-5
Staphylococcus aureus [3] = assay: Antibacterial activity against methicillin-resistant Staphylococcus aureus 14-2
Escherichia coli [4] = assay: Antibacterial activity against Escherichia coli 14-1 expressing extended-spectrum beta-lactamase
[5] = test system: Staphylococcus epidermidis; assay: Antibacterial activity against methicillin-resistant Staphylococcus epidermidis 14-4
Enterococcus faecalis [6] = assay: Antibacterial activity against Enterococcus faecalis 14-5
Enterococcus faecalis [7] = assay: Antibacterial activity against Enterococcus faecalis 14-1
Staphylococcus aureus [8] = assay: Antibacterial activity against methicillin-sensitive Staphylococcus aureus 14-3
Escherichia coli [9] = assay: Antibacterial activity against Escherichia coli 14-2 expressing extended-spectrum beta-lactamase
[10] = test system: Staphylococcus epidermidis; assay: Antibacterial activity against methicillin-sensitive Staphylococcus epidermidis 14-3
Staphylococcus aureus [11] = assay: Antibacterial activity against methicillin-sensitive Staphylococcus aureus 14-4
[12] = test system: Staphylococcus epidermidis; assay: Antibacterial activity against methicillin-resistant Staphylococcus epidermidis 14-1
[13] = test system: Staphylococcus epidermidis; assay: Antibacterial activity against methicillin-resistant Staphylococcus epidermidis 14-3
Enterococcus faecalis [14] = assay: Antibacterial activity against Enterococcus faecalis 14-3
[15] = test system: Staphylococcus epidermidis; assay: Antibacterial activity against methicillin-sensitive Staphylococcus epidermidis 14-2
Escherichia coli [16] = assay: Antibacterial activity against Escherichia coli 14-2
Escherichia coli [17] = assay: Antibacterial activity against Escherichia coli 14-1
[18] = test system: Staphylococcus epidermidis; assay: Antibacterial activity against methicillin-resistant Staphylococcus epidermidis 14-2
Enterococcus faecalis [19] = assay: Antibacterial activity against Enterococcus faecalis 14-2
[20] = test system: Staphylococcus epidermidis; assay: Antibacterial activity against methicillin-sensitive Staphylococcus epidermidis 14-1
Staphylococcus aureus [21] = assay: Antibacterial activity against methicillin-resistant Staphylococcus aureus 14-1
Staphylococcus aureus [22] = assay: Antibacterial activity against methicillin-sensitive Staphylococcus aureus 14-1
Staphylococcus aureus [23] = assay: Antibacterial activity against methicillin-resistant Staphylococcus aureus 14-4

Row | SMILES | MIC (Staphylococcus aureus [1]) [µg/mL] | MIC (Staphylococcus aureus [2]) [µg/mL] | MIC (Staphylococcus aureus [3]) [µg/mL] | MIC (Escherichia coli [4]) [µg/mL] | MIC [5] [µg/mL] | MIC (Enterococcus faecalis [6]) [µg/mL] | MIC (Enterococcus faecalis [7]) [µg/mL] | MIC (Staphylococcus aureus [8]) [µg/mL] | MIC (Escherichia coli [9]) [µg/mL] | MIC [10] [µg/mL] | MIC (Staphylococcus aureus [11]) [µg/mL] | MIC [12] [µg/mL] | MIC (Enterococcus faecalis [14]) [µg/mL] | MIC [15] [µg/mL] | MIC (Escherichia coli [16]) [µg/mL] | MIC (Escherichia coli [17]) [µg/mL] | MIC [18] [µg/mL] | MIC (Enterococcus faecalis [19]) [µg/mL] | MIC [20] [µg/mL] | MIC (Staphylococcus aureus [21]) [µg/mL] | also measured
1 | CCCC[C@H](CN(O)C=O)C(=O)N1CCC[C@H]1C(=O)Nc1ccc(F)c[n+]1[O-] | 0.5 (≈ 1.26 µM) | 0.5 (≈ 1.26 µM) | 1 (≈ 2.52 µM) | 1 (≈ 2.52 µM) | 0.125 (≈ 0.315 µM) | 128 (≈ 323 µM) | 2 (≈ 5.05 µM) | 0.5 (≈ 1.26 µM) | 64 (≈ 161 µM) | 0.06 (≈ 0.151 µM) | 0.5 (≈ 1.26 µM) | 0.125 (≈ 0.315 µM) | 2 (≈ 5.05 µM) | 0.5 (≈ 1.26 µM) | 64 (≈ 161 µM) | 64 (≈ 161 µM) | 0.125 (≈ 0.315 µM) | 2 (≈ 5.05 µM) | 0.06 (≈ 0.151 µM) | 1 (≈ 2.52 µM) | MIC [13]: 0.06 µg/mL (≈ 0.151 µM); MIC (Staphylococcus aureus [22]): 0.5 µg/mL (≈ 1.26 µM); MIC (Staphylococcus aureus [23]): 1 µg/mL (≈ 2.52 µM)
2 | CO/N=C(\C(=O)N[C@@H]1C(=O)N2C(C(=O)[O-])=CCS[C@H]12)c1csc(N)n1.[Na+] [CEFTIZOXIME SODIUM] | 4 | 64 | 64 | 1 | 32 | > 128 | > 128 | 4 | 32 | > 128 | 2 | 128 | > 128 | 64 | 4 | 4 | 128 | > 128 | 32 | 128 | MIC (Staphylococcus aureus [22]): 4 µg/mL; MIC (Staphylococcus aureus [23]): 128 µg/mL
3 | CCCC[C@H](CN(O)C=O)C(=O)N1CC2(CC2)C[C@H]1C(=O)Nc1cc[nH]n1 | 16 (≈ 42.4 µM) | 8 (≈ 21.2 µM) | 32 (≈ 84.8 µM) | 16 (≈ 42.4 µM) | 8 (≈ 21.2 µM) | > 128 | 64 (≈ 170 µM) | 16 (≈ 42.4 µM) | 128 (≈ 339 µM) | 4 (≈ 10.6 µM) | 16 (≈ 42.4 µM) | 8 (≈ 21.2 µM) | 64 (≈ 170 µM) | 16 (≈ 42.4 µM) | > 128 | > 128 | 8 (≈ 21.2 µM) | 64 (≈ 170 µM) | 4 (≈ 10.6 µM) | 16 (≈ 42.4 µM) | MIC [13]: 4 µg/mL (≈ 10.6 µM); MIC (Staphylococcus aureus [22]): 16 µg/mL (≈ 42.4 µM); MIC (Staphylococcus aureus [23]): 16 µg/mL (≈ 42.4 µM)
